Like-named read-outs stand apart in the source and are kept apart here.

We go through two molecules from patent EP4778933A1 (Chengdu Hyperway Pharmaceuticals Co., Ltd., priority 2023, dated 2025).

In one series the test system is KP2 (KRAS G12R). As to the kind of experiment: 3D cell proliferation inhibition test (CellTiter-Glo 3D, 7 days), KP2. Type of series: cell-based. To be noted: 168 h, read-out: Inhibitory activity on cell proliferation (IC50) KP2 (KRAS G12R). As for the experimental part: (§1) The diluted compounds to be tested were added to 384-well low-adhesion KRAS mutant types (such as GP2D, NCI H358, LoVo, RKN and KP2) of cell culture plates by using a nanoliter pipetting system (LABCYTE, P-0200). Then, the cells were plated and incubated in a 37°C, 5% CO2 incubator for 7 days. Afterward, CellTiter-Glo® 3D reagent was added, and the luminescent values were read by an Envision multifunctional microplate reader (the luminescent signal is proportional to the amount of ATP in the system, and the ATP content directly represents the number of viable cells in the system). Finally, the IC50 values (half-maximal inhibitory concentration) of the compounds were obtained by the XLFIT software using the nonlinear fitting formula.
(§2) • a) The diluted compounds to be tested were added to 384-well low-adhesion KRAS mutant types of cell culture plates by using a nanoliter pipetting system. • b) Cells were seeded into the 384-well plates in a) and then centrifuged at 1000 rpm for 1 min at room temperature, with a final DMSO concentration of compound being 0.5%. The plates were then incubated in a 5% CO2 constant-temperature incubator at 37°C for 7 days. • c) CellTiter-Glo® 3D was added to the 384-well cell culture plates in b), shaken in the dark, and incubated at room temperature. • d) The luminescence values were read by using an Envision multifunctional microplate reader. […]

The next series has as its system LoVo (KRAS G13D). As to the kind of experiment: 3D cell proliferation inhibition test (CellTiter-Glo 3D, 7 days), LoVo. To be noted: Homo sapiens, 168 h, read-out: Inhibitory activity on cell proliferation (IC50) LoVo (KRAS G13D). Type of series: cell-based. As for the experimental part:
as §1, §2
For orientation: ATP-based viability assays read luminescence as a measure of living cells.

Series [1] relates to KRAS G12D-mediated ERK phosphorylation. Briefly: Inhibition of KRAS G12D-mediated ERK phosphorylation in AGS cells (in-cell pERK/GAPDH immunofluorescence). Format: cell-based. The settings on record: AGS cells, 3 h incubation, read-out: Inhibitory activity on ERK phosphorylation (IC50) AGS-G12D. An outline of the steps:
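AGS, SW480, NCI H358 and KP2 cells were seeded overnight, then treated with compounds for 3 h at 37°C. After fixation, permeabilization and blocking, pERK and GAPDH were immunostained and read by two-colour infrared fluorescence. The pERK/GAPDH ratio was normalized to DMSO and 10 µM reference controls, and IC50 was fitted with a four-parameter logistic model.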

Series [2] in a line: In vivo pharmacokinetic test in mice. The settings on record: 30 mg/kg, female BALB/c mice, single dose 30 mg/kg, plasma. Here is the method:
Each test compound was administered orally once to female BALB/c mice for pharmacokinetic study. The test compounds were prepared on the day of administration. The oral administration solvent: 50 mM sodium citrate (pH 5.0) + 10% captisol. The oral administration was conducted in a dose of 30 mg/kg. The animals were fasted for 10-14 h before oral administration, and the feeding was resumed 4 h after administration. Pharmacokinetic samples were collected through the orbit. The collection time points were: 15 min, 30 min, 1 h, 2 h, 4 h, 6 h, 8 h and 24 h after administration. Three whole blood samples were collected at each time point, with a collection volume of about 0.2 mL, and anticoagulated with sodium heparin. After blood samples were collected, they were immediately placed on ice and centrifuged within 1 h to isolate plasma (centrifugation conditions: 8000 rpm, 1 min, 2-8°C). The collected plasma was stored in a -20°C refrigerator before analysis. The concentrations of compounds in the plasma samples were determined using an LC-MS/MS analysis method.

The test system of series [3] is human colon cancer GP2D mouse xenograft tumors. Briefly: In vivo drug efficacy, GP2D subcutaneous xenograft tumor model. On the set-up: species or system Balb/c nude mouse. To be noted: 30 mg/kg, PO; for inhibitory effects on human colon cancer GP2D mouse xenograft tumors: BID, 28 days; for Tumor volume inhibition rate (TGI): GP2D xenograft, BID × 28, day 28. Here is the method:
A human colon cancer GP2D cell subcutaneous xenograft tumor Balb/c nude mouse model was established. GP2D tumor cells resuspended in DMEM medium were inoculated subcutaneously on the right side of the experimental animal at 1×10^7 + gel/0.1 mL. When the tumor grew to about 150-200 mm^3, administration in groups began, with 5 animals in each group. On the day of the experiment, the animals were given corresponding drugs according to the groups. The first group G1 was set as a solvent group, and 50 mM citrate buffer (pH 5.0) + 10% Captisol was given by gavage alone. The second group G2 was given a 50 mM citrate buffer (pH 5.0) + 10% Captisol of compound 26. The third group G3 was given a 50 mM citrate buffer (pH 5.0) + 10% Captisol of compound 31. Table 5: Study on effect of test substances on animal tumor size in human colon cancer GP2D mouse xenograft tumor model
During the experiment, the body weight and tumor size of the animals were measured twice a week, and the clinical symptoms of the animals were observed and recorded every day. Each drug administration was based on the most recent weighing of the animals.
The tumor was measured with a digital vernier caliper to measure the length (a) and width (b). The tumor volume (TV) was calculated using the following formula: TV = a × b^2 /2. [formula]

A further series deals with RKN (KRAS G12V). Briefly: 3D cell proliferation inhibition test (CellTiter-Glo 3D, 7 days), RKN. Format: cell-based. The settings on record: 168 h, read-out: Inhibitory activity on cell proliferation (IC50) RKN (KRAS G12V). As for the experimental part:
as §1
(§3) • a) The diluted compounds to be tested were added to 384-well low-adhesion KRAS mutant types of cell culture plates by using a nanoliter pipetting system. • b) Cells were seeded into the 384-well plates in a) and then centrifuged at 1000 rpm for 1 min at room temperature, with a final DMSO concentration of compound being 0.5%. The plates were then incubated in a 5% CO2 constant-temperature incubator at 37°C for 7 days. • c) CellTiter-Glo® 3D was added to the 384-well cell culture plates in b), shaken in the dark, and incubated at room temperature. • d) The luminescence values were read by using an Envision multifunctional microplate reader.
(§4) The IC50 (half-maximal inhibitory concentration) values of the compounds were obtained by using XLFIT software according to the following nonlinear fitting formula: Y = Bottom + (Top−Bottom)/(1+10^(∧)((LogIC50−X)×HillSlope)) [formula] • X: log value of compound concentration. • Y: inhibition rate (%) [formula] • Negative control: DMSO. • Positive control: Medium only.

For the next series, the system named is GP2D (KRASG12D). As to the kind of experiment: 3D cell proliferation inhibition test (CellTiter-Glo 3D, 7 days), GP2D. Type of series: cell-based. To be noted: 168 h, read-out: Inhibitory activity on cell proliferation (IC50) GP2D (KRASG12D). Here is the method:
as §1, §3, §4

For the molecule `CC1(O)COCCN(c2nc(OCC34CCCN3C(c3cc(F)c(F)c(F)c3)CC4)nc3c(F)c(-c4cccc5sc(N)c(C#N)c45)c(Br)cc23)C1` (single isomer, unassigned) [Example 26, 2-amino-4-[6-bromo-8-fluoro-4-(6-hydroxy-6-methyl-1,4-oxazepan-4-yl)-2-({[3-(3,4,5-trifluoropheny 1)-2,3,5,6,7,7a-hexahydro-1H-pyrrolizin-7a-yl]methyl}oxy)quinazolin-7-yl]benzo[b]thiophene-3-carb onitrile], the IC50 in the series on KP2 (KRAS G12R) came to 56.6 nM; in the series on LoVo (KRAS G13D), 14.2 nM; in series [1] (Homo sapiens, AGS, 3 h), 2.7 nM; with RKN (KRAS G12V) it was 4.32 nM; with GP2D (KRASG12D), 2.99 nM. For the same molecule, the AUC in series [2] (mouse, in vivo, po, read-out: AUC) came to 15800 ng·h/mL. For the same molecule, the Cmax in series [2] (mouse, in vivo, po, read-out: Cmax) was determined as 4880 ng/mL. Further, the “inhibitory effects on human colon cancer GP2D mouse xenograft tumors” value in series [3] was “significant inhibitory effects”. The “Tumor volume inhibition rate (TGI)” value in series [3] is on record as 72.7%.

In the case of `CC1(O)COCCN(c2nc(OCC34CCCN3C(c3cc(F)c(F)c(F)c3)CC4)nc3c(F)c(-c4cccc5sc(N)c(C#N)c45)c(I)cc23)C1` (single isomer, unassigned) [Example 31, 2-amino-4-[6-iodo-8-fluoro-4-(6-hydroxy-6-methyl-1,4-oxazepan-4-yl)-2-({[3-(3,4,5-trifluorophenyl)-2,3,5,6,7,7a-hexahydro-1H-pyrrolizin-7a-yl]methyl}oxy)quinazolin-7-yl]benzo[b]thiophene-3-carbonitrile], the IC50 with KP2 (KRAS G12R) came out at 59.1 nM; in the series with LoVo (KRAS G13D), 20.6 nM; in series [1], 1.9 nM; in the series with RKN (KRAS G12V), 3.69 nM; in the series with GP2D (KRASG12D), 1.75 nM. The AUC in series [2] (oral) was 20953 ng·h/mL. Also, the peak concentration (Cmax) in series [2] (oral) was found to be 5124 ng/mL. For the same molecule, the “inhibitory effects on human colon cancer GP2D mouse xenograft tumors” value in series [3] is on record as “significant inhibitory effects”. Moreover, the “Tumor volume inhibition rate (TGI)” value in series [3] amounted to 86.7%.

Broadly, the AUC is concentration integrated over time. Usually Cmax stands for the peak of the concentration-time curve.
